Data on 24 molecules can be found in patent US11180474B2 (BRISTOL-MYERS SQUIBB COMPANY, priority 2016, dated 2021).

This assay concerns the target T1, human TLR8 (Homo sapiens, UniProt Q9NR97).
T1 construct: host or cells: HEK-Blue cells
T1 sequence (Q9NR97 27-1041): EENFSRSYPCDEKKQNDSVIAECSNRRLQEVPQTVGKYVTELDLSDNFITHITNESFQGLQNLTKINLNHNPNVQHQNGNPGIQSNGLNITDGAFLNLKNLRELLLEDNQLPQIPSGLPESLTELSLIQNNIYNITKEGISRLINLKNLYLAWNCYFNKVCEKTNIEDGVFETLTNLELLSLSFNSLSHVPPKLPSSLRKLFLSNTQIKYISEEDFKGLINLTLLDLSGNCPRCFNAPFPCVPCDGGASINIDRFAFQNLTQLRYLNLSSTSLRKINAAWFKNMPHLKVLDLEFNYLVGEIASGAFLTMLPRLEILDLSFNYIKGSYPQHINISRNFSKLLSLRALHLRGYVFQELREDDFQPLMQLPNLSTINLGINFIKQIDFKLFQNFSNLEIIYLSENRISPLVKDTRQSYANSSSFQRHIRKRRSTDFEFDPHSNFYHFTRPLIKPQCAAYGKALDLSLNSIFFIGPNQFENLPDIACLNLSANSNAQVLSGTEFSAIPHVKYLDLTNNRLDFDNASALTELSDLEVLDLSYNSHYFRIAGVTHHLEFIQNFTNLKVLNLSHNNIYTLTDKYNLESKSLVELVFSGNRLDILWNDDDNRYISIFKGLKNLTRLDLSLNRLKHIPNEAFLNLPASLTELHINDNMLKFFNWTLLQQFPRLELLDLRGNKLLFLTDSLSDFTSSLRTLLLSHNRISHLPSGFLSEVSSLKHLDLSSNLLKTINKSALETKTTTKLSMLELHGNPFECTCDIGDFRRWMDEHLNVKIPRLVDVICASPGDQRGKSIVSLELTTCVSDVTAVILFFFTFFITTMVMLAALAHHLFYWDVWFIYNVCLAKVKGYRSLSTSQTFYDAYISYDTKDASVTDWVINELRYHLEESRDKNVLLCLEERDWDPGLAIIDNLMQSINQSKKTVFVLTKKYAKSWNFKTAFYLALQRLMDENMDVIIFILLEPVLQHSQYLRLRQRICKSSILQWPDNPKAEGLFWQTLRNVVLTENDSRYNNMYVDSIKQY
In words: TLR8 inhibition reporter assay (HEK-Blue cells, SEAP reporter, R848 stimulation). Format: cell-based. Conditions: HEK-Blue cells overexpressing human TLR8, R848 15.9 μM. The essentials: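 22 h, 37° C, 5% CO2 incubation; compounds 0.05 nM-50 μM final; TLR7 cells 15000/well, TLR8 20,000/well. Readout: SEAP via HEK-Blue Detection medium. % inhibition = signal reduction versus agonist + DMSO wells, referenced to known inhibitor.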
Background: In a reporter assay the amount or activity of a reporter protein is the signal.
For orientation: IC50 means the concentration at which inhibition is half-maximal. High values mean lower potency, low ones higher potency. Turning to `COc1ccc(-c2[nH]c3ccc(C4CCN(C(=O)CN5CCCC(C(=O)NC6CCN(C(C)C)CC6)C5)CC4)cc3c2C(C)C)cc1OC` (single isomer, unassigned) [Example 280, 1-(2-(4-(2-(3,4-dimethoxyphenyl)-3-isopropyl-1H-indol-5-yl)piperidin-1-yl)-2-oxoethyl)-N-(1-isopropylpiperidin-4-yl)piperidine-3-carboxamide], half-maximal inhibition (IC50) was put at 22 nM.
Turning to `COc1ccc(-c2[nH]c3ccc(C4CCN(C(=O)CN5CCCC(C(=O)NC6CCN(C(C)C)CC6)C5)CC4)cc3c2C(C)C)cc1OC` (single isomer, unassigned) [Example 281, 1-(2-(4-(2-(3,4-dimethoxyphenyl)-3-isopropyl-1H-indol-5-yl)piperidin-1-yl)-2-oxoethyl)-N-(1-isopropylpiperidin-4-yl)piperidine-3-carboxamide], 20 nM corresponded to half-maximal inhibition (IC50).
As to `COc1ccc(-c2[nH]c3ccc(C4CCNCC4O)cc3c2C(C)C)cc1OC` (single isomer, unassigned) [Example 317, 4-(2-(3,4-dimethoxyphenyl)-3-isopropyl-1H-indol-5-yl)piperidin-3-ol 2,2,2-trifluoroacetate], half-maximal inhibition (IC50) was put at 82 nM.
Molecule `COc1ccc(-c2[nH]c3ccc(C4CCNCC4O)cc3c2C(C)C)cc1OC` (single isomer, unassigned) [Example 318, 4-(2-(3,4-dimethoxyphenyl)-3-isopropyl-1H-indol-5-yl)piperidin-3-ol 2,2,2-trifluoroacetate] showed an IC50 of 6070 nM.
In the case of `COc1ccc(-c2[nH]c3ccc(C4CCN(C5C[C@H]6CC[C@@H](C5)N6C)CC4)cc3c2C)cc1OC` (stereo partly drawn) [Example 21, 2-(3,4-dimethoxyphenyl)-3-methyl-5-(1-((1R,5S)-8-methyl-8-azabicyclo[3.2.1]octan-3-yl)piperidin-4-yl)-1H-indole], the IC50 amounted to 242 nM.
As to `COc1ccc(-c2[nH]c3ccc(C4CCN(C5CCN(C6CC6)CC5)CC4)cc3c2C)cc1OC` [Example 23, 5-(1′-cyclopropyl-[1,4′-bipiperidin]-4-yl)-2-(3,4-dimethoxyphenyl)-3-methyl-1H-indole], the IC50 came out at 151 nM.
The same measure for `COc1ccc(-c2[nH]c3ccc(C4CCN(C(=O)CN5CCCN(C(C)=O)CC5)CC4)cc3c2C(C)C)cc1OC` [Example 222, 2-(4-acetyl-1,4-diazepan-1-yl)-1-(4-(2-(3,4-dimethoxyphenyl)-3-isopropyl-1H-indol-5-yl)piperidin-1-yl)ethan-1-one]: 67 nM; for `COc1ccc(-c2[nH]c3ccc(C4CCN(C(=O)CN5CCOCC5)CC4)cc3c2C(C)C)cc1OC` [Example 223, 1-(4-(2-(3,4-dimethoxyphenyl)-3-isopropyl-1H-indol-5-yl)piperidin-1-yl)-2-morpholinoethan-1-one]: 98 nM; for `CCN(CC)C(=O)C1CCCN(CC(=O)N2CCC(c3ccc4[nH]c(-c5ccc(OC)c(OC)c5)c(C(C)C)c4c3)CC2)C1` (stereo not drawn) [Example 224, 1-(2-(4-(2-(3,4-dimethoxyphenyl)-3-isopropyl-1H-indol-5-yl)piperidin-1-yl)-2-oxoethyl)-N,N-diethylpiperidine-3-carboxamide]: 27 nM.
The same measure for `COc1ccc(-c2[nH]c3ccc(C4CCN(C(=O)CN5CCCC(CO)C5)CC4)cc3c2C(C)C)cc1OC` (stereo not drawn) [Example 226, 1-(4-(2-(3,4-dimethoxyphenyl)-3-isopropyl-1H-indol-5-yl)piperidin-1-yl)-2-(3-(hydroxymethyl)piperidin-1-yl)ethan-1-one]: 17 nM; for `COc1ccc(-c2[nH]c3ccc(C4CCN(C(=O)CN(C)C(C)C)CC4)cc3c2C(C)C)cc1OC` [Example 227, 1-(4-(2-(3,4-dimethoxyphenyl)-3-isopropyl-1H-indol-5-yl)piperidin-1-yl)-2-(isopropyl(methyl)amino) ethan-1-one]: 24 nM; for `COc1ccc(-c2[nH]c3ccc(C4CCN(C(=O)CNCC(N)=O)CC4)cc3c2C(C)C)cc1OC` [Example 228, 2-((2-(4-(2-(3,4-dimethoxyphenyl)-3-isopropyl-1H-indol-5-yl)piperidin-1-yl)-2-oxoethyl)amino)acetamide]: 118 nM.
The same measure for `COc1ccc(-c2[nH]c3ccc(C4CCN(C(=O)CN5CCN(CC(=O)NC(C)C)CC5)CC4)cc3c2C(C)C)cc1OC` [Example 229, 2-(4-(2-(4-(2-(3,4-dimethoxyphenyl)-3-isopropyl-1H-indol-5-yl)piperidin-1-yl)-2-oxoethyl)piperazin-1-yl)-N-isopropylacetamide]: 43 nM; for `COc1ccc(-c2[nH]c3ccc(C4CCN(C(=O)CNCCOCCO)CC4)cc3c2C(C)C)cc1OC` [Example 230, 1-(4-(2-(3,4-dimethoxyphenyl)-3-isopropyl-1H-indol-5-yl)piperidin-1-yl)-2-((2-(2-hydroxyethoxy)ethyl)amino)ethan-1-one]: 18 nM.
As to `COc1ccc(-c2[nH]c3ccc(C4CCN(C(=O)CN[C@H](CO)CC(C)C)CC4)cc3c2C(C)C)cc1OC` [Example 231, (S)-1-(4-(2-(3,4-dimethoxyphenyl)-3-isopropyl-1H-indol-5-yl)piperidin-1-yl)-2-((1-hydroxy-4-methylpentan-2-yl)amino)ethan-1-one], the IC50 was determined as 63 nM.
Turning to `COc1ccc(-c2[nH]c3ccc(C4CCN(C(=O)CN[C@H]5CC[C@H](N)CC5)CC4)cc3c2C(C)C)cc1OC` [Example 232, 2-(((1r,4r)-4-aminocyclohexyl)amino)-1-(4-(2-(3,4-dimethoxyphenyl)-3-isopropyl-1H-indol-5-yl)piperidin-1-yl)ethan-1-one], the IC50 worked out at 169 nM.
As for `CCC(CO)NCC(=O)N1CCC(c2ccc3[nH]c(-c4ccc(OC)c(OC)c4)c(C(C)C)c3c2)CC1` (stereo not drawn) [Example 233, 1-(4-(2-(3,4-dimethoxyphenyl)-3-isopropyl-1H-indol-5-yl)piperidin-1-yl)-2-((1-hydroxybutan-2-yl)amino)ethan-1-one], the IC50 amounted to 27 nM.
To `COc1ccc(-c2[nH]c3ccc(C4CCN(C(=O)CN[C@@H](CO)CC(C)C)CC4)cc3c2C(C)C)cc1OC` [Example 234, (R)-1-(4-(2-(3,4-dimethoxyphenyl)-3-isopropyl-1H-indol-5-yl)piperidin-1-yl)-2-((1-hydroxy-4-methylpentan-2-yl)amino) ethan-1-one] belongs 63 nM; to `COc1ccc(-c2[nH]c3ccc(C4CCN(C(=O)CNC[C@H](O)CO)CC4)cc3c2C(C)C)cc1OC` [Example 235, (S)-2-((2,3-dihydroxypropyl)amino)-1-(4-(2-(3,4-dimethoxyphenyl)-3-isopropyl-1H-indol-5-yl)piperidin-1-yl)ethan-1-one], 39 nM.
With `COc1ccc(-c2[nH]c3ccc(C4CCN(C(=O)CNC5CCCC5O)CC4)cc3c2C(C)C)cc1OC` (stereo not drawn) [Example 236, 1-(4-(2-(3,4-dimethoxyphenyl)-3-isopropyl-1H-indol-5-yl)piperidin-1-yl)-2-((2-hydroxycyclopentyl)amino)ethan-1-one], the IC50 stood at 38 nM.
The same measure for `COc1ccc(-c2[nH]c3ccc(C4CCN(C(=O)CNCCC(C)O)CC4)cc3c2C(C)C)cc1OC` (stereo not drawn) [Example 237, 1-(4-(2-(3,4-dimethoxyphenyl)-3-isopropyl-1H-indol-5-yl)piperidin-1-yl)-2-((3-hydroxybutyl)amino)ethan-1-one]: 22 nM; for `COc1ccc(-c2[nH]c3ccc(C4CCN(C(=O)CN5CCC(O)CC5)CC4)cc3c2C(C)C)cc1OC` [Example 238, 1-(4-(2-(3,4-dimethoxyphenyl)-3-isopropyl-1H-indol-5-yl)piperidin-1-yl)-2-(4-hydroxypiperidin-1-yl) ethan-1-one]: 5 nM.
To `COc1ccc(-c2[nH]c3ccc(C4CCN(C(=O)CN5CCCN(C)CC5)CC4)cc3c2C(C)C)cc1OC` [Example 239, 1-(4-(2-(3,4-dimethoxyphenyl)-3-isopropyl-1H-indol-5-yl)piperidin-1-yl)-2-(4-methyl-1,4-diazepan-1-yl)ethan-1-one] belongs 17 nM.
`COc1ccc(-c2[nH]c3ccc(C4CCN(C(=O)CN5CCN(C(C)C)CC5)CC4)cc3c2C(C)C)cc1OC` [Example 240, 1-(4-(2-(3,4-dimethoxyphenyl)-3-isopropyl-1H-indol-5-yl)piperidin-1-yl)-2-(4-isopropylpiperazin-1-yl)ethan-1-one] registered an IC50 of 34 nM.
